# Measurements published in patent US7220769B2, “Azolylbenzamides and analogues and their use for treating osteoporosis” (Nikem Research S.R.L., priority 1999, dated 2007).
# Tests used:
# [1] = system: osteoclast proton pump; details: membrane vesicles from avian osteoclasts, ATP-driven acidification, acridine orange quench; cited from earlier work
# [2] = system: osteoclast cultures; details: cited from earlier work
SMILES,melting point,further results
"CN1C(C)(C)CC(NC(=O)c2ccc(-c3nc4cc(Cl)c(Cl)cc4[nH]3)cc2)CC1(C)C [Example 1, 4-(5,6-Dichlorobenzimidazol-2-yl)-N-(1,2,2,6,6-pentamethylpiperidin-4-yl)benzamide]",> 280 °C,
"CN1C(C)(C)CC(NC(=O)c2ccc(-c3nc4cc(Cl)ccc4[nH]3)cc2)CC1(C)C [Example 2, 4-(5-Chlorobenzimidazol-2-yl)-N-(1,2,2,6,6-pentamethylpiperidin-4-yl)-benzamide]",> 250 °C,
"CN1C(C)(C)CC(NC(=O)c2ccc(-c3nc4cc(Cl)c(Cl)cc4[nH]3)c(O)c2)CC1(C)C [Example 3, 4-(5,6-Dichlorobenzimidazol-2-yl)-N-(1,2,2,6,6-pentamethylpiperidin-4-yl)-3-hydroxybenzamide]",> 250 °C,
"COc1cc(C(=O)NC2CC(C)(C)N(C)C(C)(C)C2)ccc1-c1nc2cc(Cl)c(Cl)cc2[nH]1 [Example 4, 4-(5,6-Dichlorobenzimidazol-2-yl)-N-(1,2,2,6,6-pentamethylpiperidin-4-yl)-3-methoxybenzamide]",285 to 286 °C,
"COc1cc(C(=O)NC2CC(C)(C)N(C)C(C)(C)C2)ccc1-c1nc2cc(Cl)c(Cl)cc2n1C [Example 5, 4-(5,6-Dichloro-1-methylbenzimidazol-2-yl)-N-(1,2,2,6,6-pentamethylpiperidin-4-yl)-3-methoxybenzamide]",178 to 180 °C,
"CCOc1cc(C(=O)NC2CC(C)(C)NC(C)(C)C2)ccc1-c1nc2cc(Cl)c(Cl)cc2[nH]1 [Example 6, 4-(5,6-Dichlorobenzimidazol-2-yl)-N-(2,2,6,6-tetramethylpiperidin-4-yl)-3-ethoxybenzamide]",> 280 °C,
"COc1cc(C(=O)NCCCN2CCN(c3ncccn3)CC2)ccc1-c1nc2cc(Cl)c(Cl)cc2[nH]1 [Example 7, 4-(5,6-Dichlorobenzimidazol-2-yl)-N-[3-[4-(2-pyrimidinyl)piperazin-1-yl]propyl]-3-methoxybenzamide]",255 to 258 °C,
"O=C(NCCCN1CCN(c2ncccn2)CC1)c1ccc(-c2nc3cc(Cl)c(Cl)cc3[nH]2)c(O)c1 [Example 8, 4-(5,6-Dichlorobenzimidazol-2-yl)-N-[3-[4-(2-pyrimidinyl)piperazin-1-yl]propyl]-3-hydroxybenzamide]",258 to 260 °C,
"COc1cc(C(=O)NC2CC(C)(C)NC(C)(C)C2)ccc1-c1nc2cc(Cl)c(Cl)cc2[nH]1 [Example 10, 4-(5,6-Dichlorobenzimidazol-2-yl)-N-(2,2,6,6-tetramethylpiperidin-4-yl)-3-methoxybenzamide]",233 to 235 °C,
"COc1cc(C(=O)N(C)C2CC(C)(C)NC(C)(C)C2)ccc1-c1nc2cc(Cl)c(Cl)cc2[nH]1 [Example 11, 4-(5,6-Dichlorobenzimidazol-2-yl)-N-(2,2,6,6-tetramethylpiperidin-4-yl)-N-methyl-3-methoxybenzamide]",240 to 242 °C,
"Cc1cc(C(=O)NC2CC(C)(C)NC(C)(C)C2)ccc1-c1nc2cc(Cl)c(Cl)cc2[nH]1 [Example 13, 4-(5,6-Dichlorobenzimidazol-2-yl)-N-(2,2,6,6-tetramethylpiperidin-4-yl)-3-methylbenzamide]",> 250 °C,
"CCOc1cc(C(=O)Nc2cccnc2)ccc1-c1nc2cc(Cl)c(Cl)cc2[nH]1 [Example 15, 4-(5,6-Dichlorobenzimidazol-2-yl)-N-(3-pyridyl)-3-ethoxybenzamide]",> 260 °C,
"CCOc1cc(C(=O)NCCCO)ccc1-c1nc2cc(Cl)c(Cl)cc2[nH]1 [Example 16, 4-(5,6-Dichlorobenzimidazol-2-yl)-N-(3-hydroxypropyl)-3-ethoxybenzamide]",148 to 150 °C,
"COc1cc(-c2nc3cc(Cl)c(Cl)cc3[nH]2)c(OC)cc1C(=O)NC1CC(C)(C)N(C)C(C)(C)C1 [Example 17, 4-(5,6-Dichlorobenzimidazol-2-yl)-N-(1,2,2,6,6-pentamethylpiperidin-4-yl)-2,5-dimethoxybenzamide]",> 250 °C,
"COc1cc(-c2nc3cc(Cl)c(Cl)cc3[nH]2)c(OC)cc1C(=O)NC1CC(C)(C)NC(C)(C)C1 [Example 18, 4-(5,6-Dichlorobenzimidazol-2-yl)-N-(2,2,6,6-tetramethylpiperidin-4-yl)-2,5-dimethoxybenzamide]",> 250 °C,
"CCOc1cc(C(=O)NC2CC(C)(C)NC(C)(C)C2)ccc1-c1nc2ccc(Cl)cc2[nH]1 [Example 19, 4-(5-Chlorobenzimidazol-2-yl)-N-(2,2,6,6-tetramethylpiperidin-4-yl)-3-ethoxybenzamide]",222 to 225 °C,
CCN1C(=O)C=CC1=O [N-ethylmaleimide],,proton transport inhibited / not inhibited [1]: inhibited
Cc1nc2c(OCc3ccccc3)cccn2c1CC#N [SCH 28080],,proton transport inhibited / not inhibited [1]: not inhibited
CO/C1=C\C(C)=C\[C@@H](C)[C@@H](O)[C@@H](C)C/C(C)=C/C=C/[C@H](OC)[C@@H]([C@@H](C)[C@@H](O)[C@H](C)[C@@]2(O)C[C@@H](O)[C@H](C)[C@@H](C(C)C)O2)OC1=O [bafilomycin A1],,proton transport inhibited / not inhibited [1]: inhibited; inhibit bone resorption [2]: able to inhibit bone resorption
C[C@@H]1O[C@@H](O[C@H]2C[C@@H](O)[C@]3(CO)[C@H]4[C@H](O)C[C@]5(C)[C@@H](C6=CC(=O)OC6)CC[C@]5(O)[C@@H]4CC[C@]3(O)C2)[C@H](O)[C@H](O)[C@H]1O [ouabain],,proton transport inhibited / not inhibited [1]: not inhibited
[Na+].[Na+].[Na+].[O]=[V]([O-])([O-])[O-] [sodium orthovanadate],,proton transport inhibited / not inhibited [1]: not inhibited
